The text below walks through data of US20260365628A1, “SUBSTITUTED 3,4-DIHYDROQUINOLINONE INHIBITORS OF TSHR” (Septerna, Inc., priority 2022, published 2026).

The structures appear in SMILES notation.

T1 sequence (P16473 21-764): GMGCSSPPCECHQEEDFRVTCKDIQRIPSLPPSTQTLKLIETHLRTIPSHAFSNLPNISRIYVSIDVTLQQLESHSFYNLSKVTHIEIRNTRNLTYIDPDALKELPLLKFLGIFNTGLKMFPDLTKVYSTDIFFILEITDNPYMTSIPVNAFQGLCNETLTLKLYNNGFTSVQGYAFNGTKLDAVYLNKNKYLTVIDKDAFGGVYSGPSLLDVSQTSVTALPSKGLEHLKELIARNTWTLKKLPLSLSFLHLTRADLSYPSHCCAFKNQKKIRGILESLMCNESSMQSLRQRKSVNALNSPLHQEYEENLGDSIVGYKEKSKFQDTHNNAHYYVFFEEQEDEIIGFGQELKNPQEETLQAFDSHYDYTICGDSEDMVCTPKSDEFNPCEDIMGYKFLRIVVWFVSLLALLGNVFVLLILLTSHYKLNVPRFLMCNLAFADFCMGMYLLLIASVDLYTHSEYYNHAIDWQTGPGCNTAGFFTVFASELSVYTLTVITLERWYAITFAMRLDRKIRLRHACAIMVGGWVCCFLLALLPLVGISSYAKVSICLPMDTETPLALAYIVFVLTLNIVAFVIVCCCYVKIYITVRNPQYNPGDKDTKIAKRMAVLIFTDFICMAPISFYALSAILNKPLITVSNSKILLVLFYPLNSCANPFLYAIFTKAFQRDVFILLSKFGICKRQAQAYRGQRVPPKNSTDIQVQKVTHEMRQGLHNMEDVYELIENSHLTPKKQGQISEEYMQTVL

The test concerns the target T1, hTSHR (Homo sapiens, UniProt P16473).
T1 construct: expressed in transfected cells
The experiment in a line: hTSHR TR-FRET cAMP Assay (inhibition of M22-stimulated cAMP production). To be noted: Expi293F Inducible cells stably expressing hTSHR; cAMP HTRF; stimulated with EC80 of anti-TSHR antibody M22; 15 min compound preincubation, 30 min at 37° C.; read-out: Activity (IC50 bins). The class given is cell-based. In short, it runs like this:
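Readout was a cAMP HTRF ratio of 655/620 nm after lysis, scaled between the EC80 M22 signal (0% inhibition) and no-agonist vehicle (100%). Frozen induced Expi293F-hTSHR cells saw test compounds (0.5% DMSO) for 15 min at 37 °C before 30 min of M22 stimulation at EC80.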
(In general: Time-resolved FRET reads energy transfer from a long-lived donor to a nearby acceptor.)
As usually defined, the IC50 is the midpoint of a concentration-inhibition curve. For `C[C@@H](c1cccc(OC(F)(F)F)c1)n1c(=O)cnc2c(CO)c(NC(=O)NC(C)(C)C)ccc21` [Example 351, (S)-1-(tert-butyl)-3-(5-(hydroxymethyl)-2-oxo-1-(1-(3-(trifluoromethoxy)phenyl)ethyl)-1,2-dihydroquinoxalin-6-yl)urea], the IC50 is greater than 1000 nM.

Consider `C[C@@H](c1cccc(OC(F)(F)F)c1)n1c(=O)cnc2cc(NC(=O)NC(C)(C)C)c(C#N)cc21` [Example 352, 3-tert-butyl-1-{7-cyano-2-oxo-1-[(1S)-1-[3-(trifluoromethoxy)phenyl]ethyl]quinoxalin-6-yl}urea], for which the IC50 was 100 to 1000 nM.

Consider `C[C@@H](c1cccc(OC(F)(F)F)c1)n1c(=O)cnc2c(F)c(NC(=O)NC(C)(C)C)ccc21` [Example 353, 3-tert-butyl-1-{5-fluoro-2-oxo-1-[(1S)-1-[3-(trifluoromethoxy)phenyl]ethyl]quinoxalin-6-yl}urea], for which the IC50 lay within 100 to 1000 nM.

For `C[C@H]1Oc2c(cc(C(F)(F)F)c(NC(=O)NC(C)(C)C)c2F)N(Cc2ccccc2)C1=O` [Example 354, (R)-1-(4-benzyl-8-fluoro-2-methyl-3-oxo-6-(trifluoromethyl)-3,4-dihydro-2H-benzo[b][1,4]oxazin-7-yl)-3-(tert-butyl)urea], the IC50 fell in the range of 100 to 1000 nM.

`C[C@H]1Oc2nc(NC(=O)NC(C)(C)C)c(Cl)cc2N(Cc2ccccc2)C1=O` [Example 355, 1-[(3R)-1-benzyl-7-chloro-3-methyl-2-oxo-3H-pyrido[2,3-b][1,4]oxazin-6-yl]-3-tert-butylurea]: the IC50 fell in the range of 100 to 1000 nM.

Consider `C[C@H]1Oc2c(cc(C(F)(F)F)c(NC(=O)NC(C)(C)C)c2F)N(Cc2cccc(C(F)F)c2)C1=O` [Example 356, (R)-1-(tert-butyl)-3-(4-(3-(difluoromethyl)benzyl)-8-fluoro-2-methyl-3-oxo-6-(trifluoromethyl)-3,4-dihydro-2H-benzo[b][1,4]oxazin-7-yl)urea], for which the IC50 lay within 100 to 1000 nM.

In the case of `C[C@@H](c1cccc(Cl)c1)n1c(=O)cnc2cc(NC(=O)NC(C)(C)C)c(F)cc21` [Example 357, (S)-1-(tert-butyl)-3-(1-(1-(3-chlorophenyl)ethyl)-7-fluoro-2-oxo-1,2-dihydroquinoxalin-6-yl) Urea], the IC50 fell in the range of 100 to 1000 nM.

With `C[C@@H](c1cccc(Cl)c1)n1c(=O)cnc2cc(NC(=O)NC(C)(C)C)c(C(F)(F)F)cc21` [Example 358, 3-tert-butyl-1-{1-[(1S)-1-(3-chlorophenyl)ethyl]-2-oxo-7-(trifluoromethyl)quinoxalin-6-yl}urea], the IC50 fell in the range of 100 to 1000 nM.

Consider `C[C@@H](c1cccc(OC(F)(F)F)c1)n1c(=O)cnc2cc(NC(=O)OC3CCCC3)ccc21` [Example 359, cyclopentyl (S)-(2-oxo-1-(1-(3-(trifluoromethoxy)phenyl)ethyl)-1,2-dihydroquinoxalin-6-yl)carbamate], for which the IC50 is less than 100 nM.

As to `C[C@@H](c1ccccc1)n1c(=O)cnc2cc(NC(=O)NC(C)(C)C)c(CO)cc21` [Example 360, (S)-1-(tert-butyl)-3-(7-(hydroxymethyl)-2-oxo-1-(1-phenylethyl)-1,2-dihydroquinoxalin-6-yl)urea], the IC50 is greater than 1000 nM.

On to `C[C@@H](c1cccc(Cl)c1)n1c(=O)cnc2cc(NC(=O)NC(C)(C)C)c(C#N)cc21` [Example 361, 3-tert-butyl-1-{1-[(1S)-1-(3-chlorophenyl)ethyl]-7-cyano-2-oxoquinoxalin-6-yl}urea], for which the IC50 lay within 100 to 1000 nM.

`C[C@H]1Oc2nc(NC(=O)NC(C)(C)C)c(C#N)cc2N(Cc2ccccc2)C1=O` [Example 362, 1-[(3R)-1-benzyl-7-cyano-3-methyl-2-oxo-3H-pyrido[2,3-b][1,4]oxazin-6-yl]-3-tert-butylurea]: the IC50 is 100 to 1000 nM.

Turning to `C[C@@H](c1cc(Cl)ccc1Cl)n1c(=O)cnc2cc(NC(=O)NC(C)(C)C)c(C#N)cc21` [Example 363, (S)-1-(tert-butyl)-3-(7-cyano-1-(1-(2,5-dichlorophenyl)ethyl)-2-oxo-1,2-dihydroquinoxalin-6-yl) urea], the IC50 is 100 to 1000 nM.

For `C[C@@H](c1cc(Cl)ccc1F)n1c(=O)cnc2cc(NC(=O)NC(C)(C)C)c(C#N)cc21` [Example 364, 3-tert-butyl-1-{1-[(1S)-1-(5-chloro-2-fluorophenyl)ethyl]-7-cyano-2-oxoquinoxalin-6-yl}urea], the IC50 is 100 to 1000 nM.

As to `C[C@@H](c1cc(Cl)ccc1Cl)n1c(=O)cnc2cc(NC(=O)NC(C)(C)C)c(Cl)cc21` [Example 365, (S)-1-(tert-butyl)-3-(7-chloro-1-(1-(2,5-dichlorophenyl)ethyl)-2-oxo-1,2-dihydroquinoxalin-6-yl)urea], the IC50 was less than 100 nM.

As to `C[C@H]1Oc2cc(NC(=O)NC(C)(C)C)c(C#N)cc2N([C@@H](C)c2ccccc2)C1=O` [Example 366, 1-(tert-butyl)-3-((R)-6-cyano-2-methyl-3-oxo-4-((S)-1-phenylethyl)-3,4-dihydro-2H-benzo[b][1,4]oxazin-7-yl)urea], the IC50 was less than 100 nM.

Turning to `C[C@H]1Oc2cc(NC(=O)NC(C)(C)C)c(C#N)cc2N(Cc2cc(Cl)ccc2Cl)C1=O` [Example 367, 3-tert-butyl-1-[(2R)-6-cyano-4-[(2,5-dichlorophenyl)methyl]-2-methyl-3-oxo-2H-1,4-benzoxazin-7-yl]urea], the IC50 fell in the range of 100 to 1000 nM.

As to `C[C@H]1Oc2nc(NC(=O)NC(C)(C)C)c(C(F)(F)F)cc2N(Cc2ccccc2)C1=O` [Example 368, (R)-1-(1-benzyl-3-methyl-2-oxo-7-(trifluoromethyl)-2,3-dihydro-1H-pyrido[2,3-b][1,4]oxazin-6-yl)-3-(tert-butyl)urea], the IC50 was less than 100 nM.

Regarding `C[C@H]1Oc2c(cc(C#N)c(NC(=O)NC(C)(C)C)c2F)N(Cc2ccccc2)C1=O` [Example 369, (R)-1-(4-benzyl-6-cyano-8-fluoro-2-methyl-3-oxo-3,4-dihydro-2H-benzo[b][1,4]oxazin-7-yl)-3-(tert-butyl)urea], the IC50 was less than 100 nM.

Regarding `C[C@H]1Oc2c(cc(C#N)c(NC(=O)NC(C)(C)C)c2F)N(Cc2cccc(C(F)F)c2)C1=O` [Example 370, (R)-1-(tert-butyl)-3-(6-cyano-4-(3-(difluoromethyl)benzyl)-8-fluoro-2-methyl-3-oxo-3,4-dihydro-2H-benzo[b][1,4]oxazin-7-yl)urea], the IC50 is less than 100 nM.

As for `C[C@H]1Oc2nc(NC(=O)NC(C)(C)C)c(C#N)cc2N(Cc2cccc(C(F)F)c2)C1=O` [Example 371, (R)-1-(tert-butyl)-3-(7-cyano-1-(3-(difluoromethyl)benzyl)-3-methyl-2-oxo-2,3-dihydro-1H-pyrido[2,3-b][1,4]oxazin-6-yl)urea], the IC50 is less than 100 nM.

As to `C[C@@H](c1cc(Cl)ccc1F)n1c(=O)cnc2cc(NC(=O)NC(C)(C)C)c(Cl)cc21` [Example 372, (S)-1-(tert-butyl)-3-(7-chloro-1-(1-(5-chloro-2-fluorophenyl)ethyl)-2-oxo-1,2-dihydroquinoxalin-6-yl)urea], the IC50 is less than 100 nM.

For `C[C@H]1Oc2cc(NC(=O)NC(C)(C)C)c(C#N)cc2N(Cc2cc(Cl)ccc2F)C1=O` [Example 373, (R)-1-(tert-butyl)-3-(4-(5-chloro-2-fluorobenzyl)-6-cyano-2-methyl-3-oxo-3,4-dihydro-2H-benzo[b][1,4]oxazin-7-yl)urea], the IC50 was in the range of 100 to 1000 nM.

As to `C[C@H]1Oc2nc(NC(=O)NC(C)(C)C)c(C(F)(F)F)cc2N(Cc2cccc(C(F)F)c2)C1=O` [Example 374, (R)-1-(tert-butyl)-3-(1-(3-(difluoromethyl)benzyl)-3-methyl-2-oxo-7-(trifluoromethyl)-2,3-dihydro-1H-pyrido[2,3-b][1,4]oxazin-6-yl)urea], the IC50 is less than 100 nM.

For the compound `CC(c1cc(C(O)C(F)(F)F)ccc1F)n1c(=O)cnc2cc(NC(=O)NC(C)(C)C)ccc21` (stereo not drawn) [Example 375, 1-(tert-butyl)-3-(1-(1-(2-fluoro-5-(2,2,2-trifluoro-1-hydroxyethyl)phenyl)ethyl)-2-oxo-1,2-dihydroquinoxalin-6-yl)urea], the IC50 was greater than 1000 nM.

Take `C[C@H]1Oc2nc(NC(=O)NC(C)(C)C)c(C(F)(F)F)cc2N([C@@H](C)c2ccccc2)C1=O` [Example 376, 1-(tert-butyl)-3-((R)-3-methyl-2-oxo-1-((S)-1-phenylethyl)-7-(trifluoromethyl)-2,3-dihydro-1H-pyrido[2,3-b][1,4]oxazin-6-yl)urea]: the IC50 was less than 100 nM.

Consider `C[C@@H](c1ccccc1)N1C(=O)CCc2nc(NC(=O)NC(C)(C)C)c(C(F)(F)F)cc21` [Example 377, (S)-1-(tert-butyl)-3-(6-oxo-5-(1-phenylethyl)-3-(trifluoromethyl)-5,6,7,8-tetrahydro-1,5-naphthyridin-2-yl)urea], for which the IC50 was less than 100 nM.
